Data taken from patent US20190375708A1 (VenatoRx Pharmaceuticals, Inc., priority 2018, published 2019).

Key:
[1] = system: HBV replication in HepAD38 cells; test: Anti-HBV replication assay in HepAD38 cells (QPCR of extracellular HBV DNA); type: cell-based, HBV (genotype D, serotype ayw); details: Hepatitis B virus, 168 h, 7 days incubation, extracellular HBV DNA by QPCR, read-out: Anti-HBV EC50
Procedure, shortened: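 Tet-off HepAD38, 7-day compound exposure ([…], 1 log10 steps, DMSO vehicle), 37 °C. Extracellular HBV DNA by QPCR, copies/mL via standard curve, % inhibition vs vehicle, EC50 by 4-parameter regression. Entecavir as positive control.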

[2] = In vitro cytotoxicity assay (MTT cell viability) in HepG2 cells; type: cell-based, human; details: human
Procedure, shortened: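 Parental HepG2 cells in EMEM + 10% FBS were exposed to compounds (8 half-log dilutions, 30 μM to 1.0 nM) for 7 days at 37 °C, 5% CO2. MTT was then added for 3-4 h, formazan dissolved in DMSO and absorbance read at 492 nm; CC50 came from 4-parameter fits against vehicle controls.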

| SMILES | EC50 [1] | CC50 at 7 days [2] |
| --- | --- | --- |
| Cc1cc(NC(=O)c2c(Cl)c(C(=O)C(=O)NCC(C)(C)O)n3c2CCCC3)cnc1F [Example 529, 2-chloro-N-(6-fluoro-5-methylpyridin-3-yl)-3-(2-((2-hydroxy-2-methylpropyl)amino)-2-oxoacetyl)-5,6,7,8-tetrahydroindolizine-1-carboxamide] | > 1000 nM | > 30000 nM |
| Cc1cc(NC(=O)c2c(Cl)c(C(=O)C(=O)NC(C)(C)C(F)(F)F)n3c2CCC3)cnc1F [Example 573, 6-chloro-N-(6-fluoro-5-methylpyridin-3-yl)-5-(2-oxo-2-((1,1,1-trifluoro-2-methylpropan-2-yl)amino)acetyl)-2,3-dihydro-1H-pyrrolizine-7-carboxamide] | 50 to 499 nM | > 30000 nM |
| COc1c(C(=O)Nc2ccc(F)c(F)c2)c(C)n(C)c1C(=O)C(=O)NC(C)(C)C [Example 380] | < 50 nM | > 30000 nM |
| Cc1cc(NC(=O)c2c(C)c(C(=O)C(=O)NCc3nnc(C(F)(F)F)[nH]3)n(C)c2C)ccc1F [Example 244, N-(4-fluoro-3-methylphenyl)-1,2,4-trimethyl-5-(2-oxo-2-(((t-(trifluoromethyl)-4H-1,2,4-triazol-3-yl)methyl)amino)acetyl)-1H-pyrrole-3-carboxamide] | 50 to 499 nM | 5000 to 30000 nM |
| Cc1c(C(=O)Nc2ccc(F)c(F)c2)c2n(c1C(=O)C(=O)NCCN)CCCC2 [Example 741, 3-(2-((2-aminoethyl)amino)-2-oxoacetyl)-N-(3,4-difluorophenyl)-2-methyl-5,6,7,8-tetrahydroindolizine-1-carboxamide] | 50 to 499 nM | > 30000 nM |
| Cc1c(C(=O)Nc2ccc(F)c(Cl)c2)c(C)n(C)c1C(=O)C(=O)NC12CCC(O)(CC1)CC2 [Example 357, N-(3-chloro-4-fluorophenyl)-5-(2-((4-hydroxybicyclo[2.2.2]octan-1-yl)amino)-2-oxoacetyl)-1,2,4-trimethyl-1H-pyrrole-3-carboxamide] | < 50 nM | > 30000 nM |
| Cc1cc(NC(=O)c2c(C)c(C(=O)C(=O)NC34CCC(O)(CC3)CC4)n(C)c2C)ccc1F [Example 263, N-(4-fluoro-3-methylphenyl)-5-(2-((4-hydroxybicyclo[2.2.2]octan-1-yl)amino)-2-oxoacetyl)-1,2,4-trimethyl-1H-pyrrole-3-carboxamide] | < 50 nM | > 30000 nM |
| Cc1cc(NC(=O)c2cc(C(=O)C(=O)NC(C)(C)CO)n3c2CCCC3)cc(F)c1F [Example 425, N-(3,4-difluoro-5-methylphenyl)-3-(2-((1-hydroxy-2-methylpropan-2-yl)amino)-2-oxoacetyl)-5,6,7,8-tetrahydroindolizine-1-carboxamide] | 50 to 499 nM | > 30000 nM |
| Cc1c(C(=O)Nc2cc(F)c(F)c(F)c2)c(Cl)c(C(=O)C(=O)NCC(C)(C)O)n1C [Example 372, 4-chloro-5-(2-((2-hydroxy-2-methylpropyl)amino)-2-oxoacetyl)-1,2-dimethyl-N-(3,4,5-trifluorophenyl)-1H-pyrrole-3-carboxamide] | < 50 nM | 500 to 4990 nM |
| Cc1noc([C@H](C)NC(=O)C(=O)c2cc(C(=O)Nc3ccc(F)c(C)c3)c3n2CCCC3)n1 [Example 430, (S)-N-(4-fluoro-3-methylphenyl)-3-(2-((1-(3-methyl-1,2,4-oxadiazol-5-yl)ethyl)amino)-2-oxoacetyl)-5,6,7,8-tetrahydroindolizine-1-carboxamide] | 50 to 499 nM | > 30000 nM |
| CC(C)(C)NC(=O)C(=O)c1cc(C(=O)Nc2ccc(F)c(C(F)F)c2)c2n1CCCC2 [Example 400, 3-(2-(tert-butylamino)-2-oxoacetyl)-N-(3-(difluoromethyl)-4-fluorophenyl)-5,6,7,8-tetrahydroindolizine-1-carboxamide] | 50 to 499 nM | > 30000 nM |
| Cc1cc(NC(=O)c2c(C)c(C(=O)C(=O)N[C@@H]3CCC[C@@H]3O)n(C)c2Cl)ccc1F [Example 390, 2-chloro-N-(4-fluoro-3-methylphenyl)-5-(2-(((1R,2S)-2-hydroxycyclopentyl)amino)-2-oxacetyl)-1,4-dimethyl-1H-pyrrole-3-carboxamide] | 50 to 499 nM | > 30000 nM |
| Cc1cc(NC(=O)c2c(C)c(C(=O)C(=O)NC3(C(F)(F)F)CCOCC3)n(C)c2C)ccc1F [Example 109, N-(4-fluoro-3-methylphenyl)-1,2,4-trimethyl-5-(2-oxo-2-((4-(trifluoromethyl)tetrahydro-2H-pyran-4-yl)amino)acetyl)-1H-pyrrole-3-carboxamide] | < 50 nM | > 30000 nM |
| Cc1c(C(=O)Nc2ccc(F)cc2)c(C)n(C)c1C(=O)C(=O)N[C@H]1CC[C@@H](O)CC1 [Example 724] | < 50 nM | > 30000 nM |
| Cc1cc(NC(=O)c2c(C)c(C(=O)C(=O)N[C@H]3C4CC5CC3C[C@](O)(C5)C4)n(CCF)c2C)ccc1F [Example 118, N-(4-fluoro-3-methylphenyl)-1-(2-fluoroethyl)-5-(2-(((1R,2s,3S,5s,7s)-5-hydroxyadamantan-2-yl)amino)-2-oxoacetyl)-2,4-dimethyl-1H-pyrrole-3-carboxamide] | < 50 nM | > 30000 nM |
| Cc1csc(C2(NC(=O)C(=O)c3c(C)c(C(=O)Nc4ccc(F)c(C)c4)c(C)n3C)CCCC2)n1 [Example 635, N-(4-fluoro-3-methylphenyl)-1,2,4-trimetthyl-5-(2-((1-(4-methylthiazol-2-yl)cyclopentyl)amino)-2-oxoacetyl)-1H-pyrrole-3-carboxamide] | < 50 nM | > 30000 nM |
| Cc1cc(NC(=O)c2c(C)c(C(=O)C(=O)NC34CC5CC(C3)C(O)C(C5)C4)n(C)c2C)ccc1F [Example 59, N-(4-fluoro-3-methylphenyl)-5-(2-(((1s,3R,4s,5S,7s)-4-hydroxyadamantan-1-yl)amino)-2-oxoacetyl)-1,2,4-trimethyl-1H-pyrrole-3-carboxamide] | < 50 nM | > 30000 nM |
| Cc1cc(NC(=O)c2c(C)c(C(=O)C(=O)N[C@@H]3CCN(S(C)(=O)=O)C3)n(C)c2C)ccc1F [Example 665, (R)-N-(4-fluoro-3-methylphenyl)-1,2,4-trimethyl-5-(2-((1-(methylsulfonyl)pyrrolidin-3-yl)amino)-2-oxoacetyl)-1H-pyrrole-3-carboxamide] | < 50 nM | 5000 to 30000 nM |
| Cc1cc(NC(=O)c2c(C)c(C(=O)C(=O)N[C@@H]3CCC[C@H](O)C3)n(C)c2C)ccc1F [Example 330, N-(4-fluoro-3-methylphenyl)-5-(2-(((1R,3S)-3-hydroxycyclohexyl)amino)-2-oxoacetyl)-1,2,4-trimethyl-1H-pyrrole-3-carboxamide] | < 50 nM | > 30000 nM |
| Cc1cc(NC(=O)c2c(C)c(C(=O)C(=O)NC3(C)CCS(=O)(=O)CC3)n(C)c2C)ccc1F [Example 622, N-(4-fluoro-3-methylphenyl)-1,2,4-trimethyl-5-(2-((4-methyl-1,1-dioxidotetrahydro-2H-thiopyran-4-yl)amino)-2-oxoacetyl)-1H-pyrrole-3-carboxamide] | < 50 nM | > 30000 nM |
| Cc1cc(NC(=O)c2c(C)c(C(=O)C(=O)N[C@H](CO)C(C)(C)C)n(C)c2C)ccc1F [Example 67, (S)—N-(4-fluoro-3-methylphenyl)-5-(2-((1-hydroxy-3,3-dimethylbutan-2-yl)amino)-2-oxoacetyl)-1,2,4-trimethyl-1H-pyrrole-3-carboxamide] | < 50 nM | > 30000 nM |
| Cc1c(C(=O)Nc2ccc(F)c(F)c2)c(C)n(C)c1C(=O)C(=O)Nc1ccc(F)cn1 [Example 295, N-(3,4-difluorophenyl)-5-(2-((5-fluoropyridin-2-yl)amino)-2-oxoacetyl)-1,2,4-trimethyl-1H-pyrrole-3-carboxamide] | < 50 nM | 5000 to 30000 nM |
| Cc1cc(NC(=O)c2c(C)c(C(=O)C(=O)NC(C)(C)C(F)(F)F)n(C)c2C)ccc1F [Example 9, N-(4-fluoro-3-methylphenyl)-1,2,4-trimethyl-5-(2-oxo-2-((1,1,1-trifluoro-2-methylpropan-2-yl)amino)acetyl)-1H-pyrrole-3-carboxamide] | < 50 nM | > 30000 nM |
| Cc1c(C(=O)Nc2ccc(F)c(F)c2)c(Cl)c(C(=O)C(=O)NC2(C)CC(F)(F)C2)n1C [Example 375, 4-chloro-5-(2-((3,3-difluoro-1-methylcyclobutyl)amino)-2-oxoacetyl)-N-(3,4-difluorophenyl)-1,2-dimethyl-1H-pyrrole-3-carboxamide] | < 50 nM | > 30000 nM |
| CCn1c(C)c(C(=O)Nc2ccc(F)c(C)c2)c(C)c1C(=O)C(=O)N[C@]1(C)CC[C@@H](O)CC1 [Example 696] | < 50 nM | > 30000 nM |
| Cc1cc(NC(=O)c2c(Cl)c(C(=O)C(=O)NC(C)(C)CO)n3c2CCC3)ccc1F [Example 540, 6-chloro-N-(4-fluoro-3-methylphenyl)-5-(2-((1-hydroxy-2-methylpropan-2-yl)amino)-2-oxoacetyl)-2,3-dihydro-1H-pyrrolizine-7-carboxamide] | < 50 nM | > 30000 nM |
| Cc1cc(NC(=O)c2c(C)c(C(=O)C(=O)N[C@H]3CC[C@@H](CO)CC3)n(C)c2C)ccc1F [Example 676, N-(4-fluoro-3-methylphenyl)-5-(2-(((1s,4s)-4-(hydroxymethyl)cyclohexyl)amino)-2-oxoacetyl)-1,2,4-trimethyl-1H-pyrrole-3-carboxamide] | < 50 nM | > 30000 nM |
